# What was measured:
# N2a cells = assay: LC3 puncta and tfLC3 autophagy flux imaging in N2a cells; assay type: cell-based, mouse; settings: N2a cells transfected with tfLC3, 12 hours
# Procedure: N2a cells are treated with E4 (1 μM) in the presence or absence of CQ for 12 hours. The cells are fixed and stained with LC3 antibody (red) and DAPI (blue). Representative cells are then selected and photographed under a DeltaVision Deconvolution Microscope (GE Healthcare).
# N2a cells are transiently transfected with mRFP-GFP-LC3 (tfLC3) plasmid and then treated with E4 (1 μM) or CQ (1 μM) for 12 hours. Representative cells are then selected and photographed under a DeltaVision Deconvolution Microscope (GE Healthcare).
# After transiently knockdown the expression of TFEB, N2a cells are treated with E4 (1 μM) for 12 hours, the cells were then stained with LC3 antibody (red) and DAPI (blue).
# Cells are seeded on coverslips placed in 24-well plates. For autophagy flux assay, cells are transfected with tfLC3 plasmid for 24 hours and then treated with the indicated compounds. For other assays, at the end drug treatment, slices are fixed with 3.7% paraformaldehyde, permeabilized in 0.2% Triton X-100 and blocked with 5% BSA. After blocking, the slices are stained with anti-TFEB (1:200) or anti-LC3 (1:500) antibodies overnight at 4° C. […] Cells are visualized using the Eclipse 80i fluorescence microscope (Nikon Instruments Inc.) or the DeltaVision Deconvolution Microscope (GE Healthcare).
# 3×Flag-TFEB = target: T1, 3×Flag-TFEB (Homo sapiens, UniProt P19484); assay: Nuclear translocation of Flag-TFEB in Hela cells stably expressing 3×Flag-TFEB (immunostaining, western blot); assay type: cell-based; settings: analogs 1 μM, curcumin 10 μM, 12 h, Torin 1 1 μM, 2 h
# T1 construct: expressed in transfected cells
# T1 sequence (P19484 1-476): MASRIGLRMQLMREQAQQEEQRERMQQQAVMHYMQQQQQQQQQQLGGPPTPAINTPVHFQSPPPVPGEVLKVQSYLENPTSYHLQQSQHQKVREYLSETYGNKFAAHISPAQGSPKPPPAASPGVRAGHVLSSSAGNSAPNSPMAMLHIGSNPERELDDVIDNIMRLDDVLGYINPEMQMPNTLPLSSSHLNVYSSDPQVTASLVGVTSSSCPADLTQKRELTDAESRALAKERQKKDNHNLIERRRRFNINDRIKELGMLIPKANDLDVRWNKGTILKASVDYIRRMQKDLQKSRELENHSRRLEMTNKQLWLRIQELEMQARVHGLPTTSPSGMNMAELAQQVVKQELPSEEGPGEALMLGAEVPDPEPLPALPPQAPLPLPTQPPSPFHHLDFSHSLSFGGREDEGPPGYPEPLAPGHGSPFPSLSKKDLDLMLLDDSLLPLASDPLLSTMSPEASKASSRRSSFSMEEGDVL
# Procedure: Cells were treated with curcumin (Cur, 10 μM), A2, B3 and C1 (1 μM) for 12 h. […] Data is quantified by ImageJ software and is presented as mean±SD of three replicates for each treatment conditions. At least 1000 cells are analyzed in each treatment group. *p<0.05 vs. the control (0.1% DMSO). FIG. 4C is a western blot showing the expression of endogenous TFEB. […] Data are presented as the mean±SD from three independent experiments. *p<0.05 vs. the control (0.1% DMSO). FIG. 4E is fluorescence images showing expression of 3×Flag-TFEB in Hela cells having treated with Cur (10 μM), A2, B3 and C1 (1 μM) for 12 h. Torin 1 (1 μM) treatment for 2 h is used as a positive control. Cells were fixed and stained with anti-Flag antibody. […] FIG. 4G is the western blot showing the expression of Flag-tagged TFEB in the cytosolic (Cyt.) and nuclear (Nuc.) fractions. ACTB and H3F3A (H3 histone, family 3A) are used as loading control of cytoplasmic and nuclear fraction, respectively. FIG. 4H is showing the relative intensity of TFEB in the cytosolic and nuclear fractions. Data are presented as the mean±SD from three independent experiments. *p<0.05 vs. the control (0.1% DMSO).
# HeLa cells stably expressing 3×Flag-TFEB are treated with curcumin analogs E2, E3 and E4 (1 μM) for 12 hours. Torin 1 (1 μM) treatment for 2 hours is used as a positive control. Cells are fixed and stained with anti-Flag antibody (red) and DAPI (blue) (FIG. 18A). TFEB translocate into nucleus are quantified (FIG. 18B). Quantification data are presented as mean±SD of three replicates in a representative experiment. At least 500 cells are analyzed in each treatment group.
# HeLa cells stably expressing 3×Flag-TFEB are treated with curcumin analogs E2, E3 and E4 (1 μM) for 12 hours. Torin 1 (1 μM) treatment for 2 hours is used as a positive control. The expression of TFEB in the cytosolic (Cyt.) and nuclear (Nuc.) fractions are determined by western blotting (FIG. 19A) and quantified (FIG. 19B). TUBB (β-tubulin) and H3F3A (H3 histone, family 3A) are used as loading control of cytoplasmic and nuclear fraction respectively. Quantification data are presented as the mean±SD from three independent experiments. *p<0.05 vs. the control (0.1% DMSO).
# N2a, Hela and Hela cells stably expressing 3×-Flag-TFEB are cultured in DMEM supplemented with 10% FBS. SH-SY5Y cells are cultured in DMEM/F12 supplemented with 10% FBS. For drug treatment, the full medium is replaced by fresh Opti-MEM I and then the compounds (in 0.1% DMSO) are added to the cells and incubated for 12 h. Inducible PC12 cells overexpressing SNCA (WT and A53T) (a kind gift from Prof. David C. Rubinsztein at Cambridge University) are grown in DMEM supplemented with 10% horse serum, 5% FBS, 50 μg/ml G418, and 150 μg/ml hygromycin B at 37° C., 10% CO2. Cells are treated with 2 μg/ml doxycycline (Dox) for 24 h to induce SNCA expression. The full medium is changed to Opti-MEM I containing the testing compounds for another 48 h.
# Cells are lysed on ice in 1× Lysis Buffer (9803, Life Technologies) with complete protease inhibitor mixture (04693124001, Roche Applied Science). Animal tissues are homogenized in nine volumes of ice-cold PBS supplemented with protease inhibitors. Cytosolic and nuclear fractions are isolated using protocols similar to those described previously. Anti-Flag or TFEB antibody is added to the whole cell lysates and Dynabeads® Protein G (10003D, Life Technologies) is used for immunoprecipitation. Proteins are separated by 10-15% SDS-PAGE, transferred, and blotted with the antibodies described. The blots are then incubated with secondary antibodies or the Clean-Blot IP Detection Reagent (21230, Thermo Scientific) at room temperature for 1 h. The protein signals are detected by ECL kit (32106, Pierce) and quantified using ImageJ software.
# Cells are seeded on coverslips placed in 24-well plates. […]
nuclear translocation of Flag-TFEB (3×Flag-TFEB),SMILES,"mRFP-GFP-LC3 (tfLC3) puncta (autophagy flux, autolysosome formation) (N2a cells)"
,"CCN(CC)CCCC(C)Nc1ccnc2cc(Cl)ccc12 (centres unmarked) [CQ, chloroquine, reference compound]",induced accumulation and colocalization of both GFP and mRFP fluorescence
significantly promotes,"CCC(=O)N1CCN(c2ccc(-n3c(=O)ccc4cnc5ccc(-c6cnc7ccccc7c6)cc5c43)cc2C(F)(F)F)CC1 [Torin 1, reference compound]",
